Structures can show the parent of a compound that is named as a salt.

This assay has as its target T1, α-1A adrenoceptor (dog prostate) (Canis lupus, UniProt A0A8I3NK63).
T1 sequence (A0A8I3NK63 1-466): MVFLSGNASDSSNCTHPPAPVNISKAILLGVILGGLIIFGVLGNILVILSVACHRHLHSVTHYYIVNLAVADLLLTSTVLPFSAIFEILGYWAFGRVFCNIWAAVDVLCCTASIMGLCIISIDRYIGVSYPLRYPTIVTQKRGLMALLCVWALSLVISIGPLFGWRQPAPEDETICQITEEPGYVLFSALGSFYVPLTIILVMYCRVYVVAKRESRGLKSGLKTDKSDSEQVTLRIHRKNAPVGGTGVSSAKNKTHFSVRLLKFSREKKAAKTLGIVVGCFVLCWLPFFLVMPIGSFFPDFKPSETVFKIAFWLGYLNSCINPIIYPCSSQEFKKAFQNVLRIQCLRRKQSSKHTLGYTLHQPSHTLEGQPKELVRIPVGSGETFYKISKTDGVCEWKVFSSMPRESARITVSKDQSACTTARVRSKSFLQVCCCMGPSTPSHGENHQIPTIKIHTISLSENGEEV
In words: Functional antagonism: phenylephrine (PE)-induced contraction of canine prostate strips. It is filed as cell-based. Conditions: Table 2b; vs phenylephrine; Schild plot. The source says: Functional assays indicative of pharmacologically defined α-1 adrenoceptors were used to further characterize compounds. Inhibition of phenylephrine (PE)-induced contraction of canine prostate smooth muscle can be correlated with α-1A adrenoceptor activation. […] For each of these models, agonist dose response curves were repeated against increasing concentrations of test agent to derive a Schild plot [log ([…]) against log (molarity of test agent)] to determine the pA2.
Canine prostate strips were used in vitro as previously described (Hieble, J. P., Boyce, A. J. and Caine, M., Fed. Proc., 45:2609-2614 (1986)), to determine antagonist potencies against phenylephrine-induced contractions.
`COc1cccc2c1CC[C@H]1CN(CCn3c(=O)[nH]c4cc5ccccc5cc4c3=O)C[C@@H]21` (relative stereo) [Example 21, 3-[2-(cis-6-Methoxy-2,3,3a,4,5,9b-hexahydro-[1H]-benz[e]isoindol-1-yl)ethyl]-benzo[g]quinazoline-2,4(1H,3H):dione hydrochloride]: the “pA2 Dog Prostate [α-1A]” value is 7.43.

With `COc1cccc2c1CC[C@H]1CN(CCn3c(=O)[nH]c4c(sc5ccc(NC(C)=O)cc54)c3=O)C[C@@H]21` [Example 49, 3-[2-((3aR,9bR)-cis-6-Methoxy-2,3,3a,4,5,9b-hexahydro-[1H]-benz[e]isoindol-1-yl)ethyl]-[1]-8-acetamido-benzothieno[3,2-d]pyrimidine-2,4(1H,3H)-dione hydrochloride], the “pA2 Dog Prostate [α-1A]” value amounted to 7.84.

In the case of `COc1cccc2c1CC[C@H]1CN(CCn3c(=O)[nH]c4c(sc5c(Cl)cccc54)c3=O)C[C@@H]21` [Example 56, 3-[2-((3aR,9bR)-cis-6-Methoxy-2,3,3a,4,5,9b-hexahydro-[1H]-benz[e]isoindol-1-yl)ethyl]-[1]-6-chloro-benzothieno[3,2-d]pyrimidine-2,4(1H,3H)-dione hydrochloride], the “pA2 Dog Prostate [α-1A]” value is on record as 7.11.

Turning to `COc1cccc2c1CC[C@H]1CN(CCn3c(=O)[nH]c4c(sc5c(C#N)cccc54)c3=O)C[C@@H]21` [Example 55, 3-[2-((3aR,9bR)-cis-6-Methoxy-2,3,3a,4,5,9b-hexahydro-[1H]-benz[e]isoindol-1-yl)ethyl]-[1]-6-cyano-benzothieno[3,2-d]pyrimidine-2,4(1H,3H)-dione hydrochloride], the “pA2 Dog Prostate [α-1A]” value is 8.11.

On to `COc1cccc2c1[C@@H]1CN(CCn3c(=O)[nH]c4c([nH]c5ccccc54)c3=O)C[C@@H]1CC2` [Example 24, hydrochloride], for which the “pA2 Dog Prostate [α-1A]” value came out at 8.6.

`COc1cccc2c1CC[C@H]1CN(CCn3c(=O)[nH]c4c(sc5cc(C(F)(F)F)ccc54)c3=O)C[C@@H]21` [Example 32, 3-[2-((3aR,9bR)-cis76-Methoxy-2,3,3a,4,5,9b-hexahydro-[1-benz[e]isoindol-1-yl)ethyl]-7-trifluoromethyl[1]benzothieno[23-d]pyrimidine-2,4(1H,3H)-dione hydrochloride]: the “pA2 Dog Prostate [α-1A]” value was 7.46.

In the case of `COc1cccc2c1CC[C@H]1CN(CCn3c(=O)[nH]c4c(sc5ccncc54)c3=O)C[C@@H]21` [Example 38, 3-[2-((3aR,9bR)-cis-6-Methoxy-2,3,3a,4,5,9b-hexahydro-[1H]-benz[e]isoindol-1-yl)ethyl]1-pyrido[3',4':4,5]thieno[3,2-d]pyrimidine-2,4(1H,3H)-dione dihydrochloride], the “pA2 Dog Prostate [α-1A]” value amounted to 9.75.

With `COc1cccc2c1CC[C@H]1CN(CCn3cnc4c(sc5ccccc54)c3=O)C[C@@H]21` (relative stereo) [Example 28, dihydrochloride], the “pA2 Dog Prostate [α-1A]” value is 7.75.

As for `COc1cccc2c1CC[C@H]1CN(CCn3c(=O)[nH]c4c(sc5ccc(C)cc54)c3=O)C[C@@H]21` [Example 74, 3-[2,((3aR,9bR)-cis-6-Methoxy-2,3,3a,4,5,9b-hexahydro-[1H]-benz[e]isoindol-1-yl)ethyl]-[1]-8-methyl-benzothieno[3,2-d]pyrimidine-2,4(1H,3H)-dione hydrochloride], the “pA2 Dog Prostate [α-1A]” value is 8.7.

With `COc1cccc2c1CC[C@H]1CN(CCn3c(C)nc4c(sc5ccccc54)c3=O)C[C@@H]21` (relative stereo) [Example 29, dihydrochloride], the “pA2 Dog Prostate [α-1A]” value turned out to be 7.43.

On to `COc1cccc2c1CC[C@H]1CN(CCn3c(=O)[nH]c4c5c(sc4c3=O)CCCC5)C[C@@H]21` (relative stereo) [Example 22, hydrochloride], for which the “pA2 Dog Prostate [α-1A]” value is on record as 8.32.

As to `COCCn1c(=O)n(CCN2C[C@@H]3CCc4c(OC)cccc4[C@@H]3C2)c(=O)c2sc3nccnc3c21` [Example 104, 3-[2-(cis-(3aR,9bR)-6-Methoxy-2,3,3a,4,5,9b-hexahydro-[1H]-benz[e]isoindol-1-yl)ethyl]-1-(2-methoxyethyl)pyrazino[2',3':4,5]thieno[3,2-d]pyrimidine-2,4(1H,3H)-dione hydrochloride], the “pA2 Dog Prostate [α-1A]” value was 9.74.

As to `COc1cccc2c1CC[C@H]1CN(CCn3c(=O)[nH]c4c(sc5c(Cl)ccnc54)c3=O)C[C@@H]21` [Example 63, 3-[2-((3aR,9bR)-cis-6-Methoxy-2,3,3a,4,5,9b-hexahydro-[1H]-benz[e]isoindol-1-yl)ethyl]-6-chloro-pyrido[2',3':4,5]thieno[3,2-d]pyrimidine-2,4(1H,3H)-dione dihydrochloride], the “pA2 Dog Prostate [α-1A]” value was determined as 8.6.

`COc1cccc2c1CC[C@H]1CN(CCn3c(=O)[nH]c4c(sc5ccc(N(C)C)cc54)c3=O)C[C@@H]21` [Example 50, 3-[2-((3aR,9bR)-cis-6-Methoxy-2,3,3a,4,5,9b-hexahydro-[1H]-benz[e]isoindol-1-yl)ethyl]-[1]-8-N,N-dimethylamino-benzothieno[3,2-d]pyrimidine-2,4(1H,3H)-dione hydrochloride]: the “pA2 Dog Prostate [α-1A]” value was 7.24.

For `COc1cccc2c1[C@@H]1CN(CCCCn3c(=O)[nH]c4c(sc5nccnc54)c3=O)C[C@@H]1CC2` [Example 80, hydrochloride], the “pA2 Dog Prostate [α-1A]” value is given as 8.08.

Consider `COc1cccc2c1CC[C@H]1CN(CCn3c(=O)c4sc5nccnc5c4n(Cc4ccccc4)c3=O)C[C@@H]21` [Example 96, hydrochloride], for which the “pA2 Dog Prostate [α-1A]” value is 7.46.

As to `O=c1[nH]c2c(sc3ccccc32)c(=O)n1CCN1C[C@@H]2CCc3c(O)cccc3[C@@H]2C1` (relative stereo) [Example 20, 3-2-(cis-6-Hydroxy-2,3,3a,4,5,9b-hexahydro-[1H]-benz[e]isoindol-1-yl)ethyl]-[1]benzothieno[3,2-d]pyrimidine-2,4(1H,3H) -dione hydrobromide], the “pA2 Dog Prostate [α-1A]” value was 7.43.

For `COc1cccc2c1CC[C@H]1CN(CCn3c(=O)[nH]c4c(sc5cc(C#N)ccc54)c3=O)C[C@@H]21` [Example 42, 3-[2-((3aR,9bR)-cis-6-Methoxy-2,3,3a,4,5,9b-hexahydro-[1H]-benz[e]isoindol-1-yl)ethyl]-[1]-7-cyano-benzothieno[3,2-d]pyrimidine-2,4(1H,3H)-dione hydrochloride], the “pA2 Dog Prostate [α-1A]” value worked out at 9.09.

For the compound `COc1cccc2c1CC[C@H]1CN(CCn3c(=O)[nH]c4c(sc5ncncc54)c3=O)C[C@@H]21` [Example 40, 3-[2-(cis-(3aR,9bR)-6-Methoxy-2,3,3a,4,5,9b-hexahydro-[1H]-benz[e]isoindol-1-yl)ethyl]-thieno[2,3-d:4,5]dipyrimidine-2,4(1H,3H)-dione], the “pA2 Dog Prostate [α-1A]” value was determined as 9.72.

In the case of `COc1cccc2c1CC[C@H]1CN(CCn3c(=O)[nH]c4c(sc5ccc(C#N)cc54)c3=O)C[C@@H]21` [Example 43, 3-[2-((3aR,9bR)-cis-6-Methoxy-2,3,3a,4,5,9b-hexahydro-[1H]-benz[e]isoindol-1-yl)ethyl]-[1]-8-cyano-benzothieno[3,2-d]pyrimidine-2,4(1H,3H)-dione hydrochloride], the “pA2 Dog Prostate [α-1A]” value is recorded as 8.44.

Consider `COc1cccc2c1CC[C@H]1CN(CCn3c(=O)c4sc5nccnc5c4n(C)c3=O)C[C@@H]21` [Example 95, hydrochloride], for which the “pA2 Dog Prostate [α-1A]” value was 9.07.

For the compound `COc1cccc2c1CC[C@H]1CN(CCn3c(=O)[nH]c4c(sc5nc(-c6ccccc6)cnc54)c3=O)C[C@@H]21` [Example 91, hydrochloride], the “pA2 Dog Prostate [α-1A]” value worked out at 6.66.

For `COc1cccc2c1CC[C@H]1CN(CCn3c(=O)[nH]c4c(ccc5cnccc54)c3=O)C[C@@H]21` [Example 84, hydrochloride], the “pA2 Dog Prostate [α-1A]” value is 8.99.

For `COc1cccc2c1CC[C@H]1CN(CCn3c(=O)[nH]c4c(sc5cccnc54)c3=O)C[C@@H]21` [Example 37, dihydrochloride], the “pA2 Dog Prostate [α-1A]” value is recorded as 9.15.

As to `COc1cccc2c1CC[C@H]1CN(CCn3c(=O)[nH]c4c(sc5cccc(C#N)c54)c3=O)C[C@@H]21` [Example 54, 3-2-((3aR,9bR)-cis-6-Methoxy-2,3,3a,4,5,9b-hexahydro-[1H]-benz[e]isoindol-1-yl)ethyl]-[1]-9-cyano-benzothieno[3,2-d]pyrimidine-2,4(1H,3H)-dione hydrochloride], the “pA2 Dog Prostate [α-1A]” value was 8.74.

For the compound `COc1cc2sc3c(=O)n(CCN4C[C@@H]5CCc6c(OC)cccc6[C@@H]5C4)c(=O)[nH]c3c2cc1OC` [Example 68, 3-[2-((3aR,9bR)-cis-6-Methoxy-2,3,3a,4,5,9b-hexahydro-[1H]-benz[e]isoindol-1-yl)ethyl]-[1]-7,8-dimethoxy-benzothieno[3,2-d]pyrimidine-2,4(1H,3H)-dionehydrochloride], the “pA2 Dog Prostate [α-1A]” value was 7.87.

`COc1cccc2c1[C@H]1CN(CCn3c(=O)[nH]c4c(sc5ccccc54)c3=O)C[C@H]1CC2` [Example 19, hydrochloride]: the “pA2 Dog Prostate [α-1A]” value was found to be 6.66.

The record behind these values is patent publication US5597823A, “Tricyclic substituted hexahydrobenz [e]isoindole alpha-1 adrenergic antagonists” (priority 1995, dated 1997).
